Assay results reported in patent US9663573B2, “Methods of treating liver conditions using Notch2 antagonists” (GENENTECH, INC., priority 2011, dated 2017).

How the values were obtained:
[1] = system: liver progenitor cells (oval cells); test: Primary oval cell culture on Sw-3T3 feeder fibroblasts: colony formation and proliferation; type: cell-based, mouse
Description: To elucidate the role of Notch signaling in liver regeneration, an in vitro culture system was developed. Cell cultures were established by culturing primary oval cells on Sw-3T3 fibroblasts (ATCC), arrested with Mitomycin C (Sigma), in High Glucose Dulbecco's Modified Eagle Medium (DMEM; Invitrogen) supplemented with 15% Fetal Calf Serum (Sigma), non-essential amino acids (Invitrogen), Glutamax (Invitrogen), and ITS (Invitrogen).

[2] = target: T1, Notch2 (Mus musculus, UniProt O35516); test: Notch2 signaling in cultured oval cells (activated Notch2 ICD by Western blot, Hes1 expression); type: cell-based; conditions: FIG. 2H
T1 construct: Cell cultures were established by culturing primary oval cells on Sw-3T3 fibroblasts; endogenous in cells; host or cells: primary mouse liver oval (progenitor) cells
T1 sequence (O35516 26-2473): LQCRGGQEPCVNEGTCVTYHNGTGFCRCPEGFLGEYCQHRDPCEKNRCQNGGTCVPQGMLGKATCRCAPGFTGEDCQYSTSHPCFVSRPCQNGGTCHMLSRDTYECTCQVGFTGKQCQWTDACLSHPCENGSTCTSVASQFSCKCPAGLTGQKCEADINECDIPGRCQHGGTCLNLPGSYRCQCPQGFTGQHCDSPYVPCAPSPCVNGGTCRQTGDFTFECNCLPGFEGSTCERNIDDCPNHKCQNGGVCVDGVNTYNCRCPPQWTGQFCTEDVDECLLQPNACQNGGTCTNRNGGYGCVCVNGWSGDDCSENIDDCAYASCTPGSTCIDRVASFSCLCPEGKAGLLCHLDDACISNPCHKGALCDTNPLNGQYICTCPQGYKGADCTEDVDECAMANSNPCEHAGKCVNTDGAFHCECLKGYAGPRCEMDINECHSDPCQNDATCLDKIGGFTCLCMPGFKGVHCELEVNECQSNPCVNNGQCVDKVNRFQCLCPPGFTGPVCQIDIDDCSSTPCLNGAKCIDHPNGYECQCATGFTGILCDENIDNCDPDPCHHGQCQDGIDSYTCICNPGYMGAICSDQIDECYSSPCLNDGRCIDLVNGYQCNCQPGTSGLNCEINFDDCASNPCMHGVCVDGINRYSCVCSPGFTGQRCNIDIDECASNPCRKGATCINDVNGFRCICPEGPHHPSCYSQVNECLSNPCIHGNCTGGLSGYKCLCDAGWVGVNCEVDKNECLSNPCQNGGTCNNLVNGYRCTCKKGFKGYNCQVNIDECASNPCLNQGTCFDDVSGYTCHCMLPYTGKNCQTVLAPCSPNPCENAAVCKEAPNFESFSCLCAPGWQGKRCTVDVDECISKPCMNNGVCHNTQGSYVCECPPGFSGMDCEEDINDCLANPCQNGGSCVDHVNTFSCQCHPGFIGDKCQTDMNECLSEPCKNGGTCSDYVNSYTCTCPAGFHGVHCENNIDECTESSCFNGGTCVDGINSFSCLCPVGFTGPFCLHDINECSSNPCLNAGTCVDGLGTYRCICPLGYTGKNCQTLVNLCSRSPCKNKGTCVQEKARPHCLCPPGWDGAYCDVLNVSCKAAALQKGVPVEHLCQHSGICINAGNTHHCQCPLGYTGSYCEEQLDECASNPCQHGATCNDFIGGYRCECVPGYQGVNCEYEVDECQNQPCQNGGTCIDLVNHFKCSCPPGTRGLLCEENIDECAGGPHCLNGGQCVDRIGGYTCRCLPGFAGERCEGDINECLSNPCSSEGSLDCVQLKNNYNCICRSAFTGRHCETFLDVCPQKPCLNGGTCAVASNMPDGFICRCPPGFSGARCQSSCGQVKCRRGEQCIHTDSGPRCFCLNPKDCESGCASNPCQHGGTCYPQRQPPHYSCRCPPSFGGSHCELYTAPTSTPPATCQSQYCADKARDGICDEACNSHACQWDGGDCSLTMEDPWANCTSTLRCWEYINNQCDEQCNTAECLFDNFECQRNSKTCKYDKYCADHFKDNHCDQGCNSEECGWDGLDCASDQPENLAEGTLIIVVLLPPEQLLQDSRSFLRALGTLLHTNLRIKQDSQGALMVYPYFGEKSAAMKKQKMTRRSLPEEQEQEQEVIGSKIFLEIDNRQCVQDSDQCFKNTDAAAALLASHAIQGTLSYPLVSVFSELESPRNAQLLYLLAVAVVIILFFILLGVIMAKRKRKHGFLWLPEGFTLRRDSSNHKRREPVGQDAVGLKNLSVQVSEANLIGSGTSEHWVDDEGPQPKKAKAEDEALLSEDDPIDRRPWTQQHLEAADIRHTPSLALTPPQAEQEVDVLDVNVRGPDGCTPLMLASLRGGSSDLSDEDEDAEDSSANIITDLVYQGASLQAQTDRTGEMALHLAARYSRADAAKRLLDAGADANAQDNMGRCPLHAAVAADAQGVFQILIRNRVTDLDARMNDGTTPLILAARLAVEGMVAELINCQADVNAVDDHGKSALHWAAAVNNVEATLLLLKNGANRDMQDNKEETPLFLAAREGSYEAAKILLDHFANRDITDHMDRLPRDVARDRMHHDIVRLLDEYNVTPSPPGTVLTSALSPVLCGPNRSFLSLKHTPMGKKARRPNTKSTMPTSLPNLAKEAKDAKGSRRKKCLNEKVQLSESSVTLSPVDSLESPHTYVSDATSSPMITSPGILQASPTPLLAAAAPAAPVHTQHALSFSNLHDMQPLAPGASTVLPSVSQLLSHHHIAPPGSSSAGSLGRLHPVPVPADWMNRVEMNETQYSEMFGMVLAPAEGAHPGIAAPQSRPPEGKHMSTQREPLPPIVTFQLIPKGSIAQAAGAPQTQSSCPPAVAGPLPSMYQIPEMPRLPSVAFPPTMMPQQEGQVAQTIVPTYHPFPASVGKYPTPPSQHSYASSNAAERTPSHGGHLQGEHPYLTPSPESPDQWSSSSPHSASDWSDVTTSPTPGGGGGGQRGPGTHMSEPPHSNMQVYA
Description: The anti-activated Notch2 antibody (clone 40-2-7) was generated against the peptide VIMAKRKRKHGSLW, corresponding to amino acids 1697-1710 of the human Notch2 protein sequence (SEQ ID NO:73), coupled to KLH (YenZym Custom Antibodies, LLC). Splenocytes from a rabbit producing an antibody with the appropriate specificity were used to generate hybridomas (Epitomics, Inc.). Clone 40-2-7 was identified by screening the resulting rabbit monoclonal antibodies by immunoblotting and immunohistochemistry. This antibody recognizes both human (FIG. 7B, left panel) and mouse (FIG. 7B, right panel) active Notch2 at endogenous levels.
Progenitors cultured in the culture system maintained growth (FIG. 2A) and formed colonies consisting of small, tightly packed cells with a high nuclear-cytoplasmic ratio and a distinct raised edge (FIG. 2A, left panel). The cells within these colonies were uniformly EpCAM positive (FIG. 2A, right panel). […] Activated Notch2 was detected by Western blot analysis using a rabbit monoclonal antibody raised against the S3 cleaved form of the human Notch2 protein (FIG. 7B). […]
Notch2 signaling was active in cultured oval cells, as transcriptionally active Notch2 intracellular domain (ICD) could be detected using an antibody specific to the γ-secretase cleaved form of this receptor (FIG. 2H). […]

Structure (SMILES): C[C@H](NC(=O)Cc1cc(F)cc(F)c1)C(=O)N[C@H](C(=O)OC(C)(C)C)c1ccccc1 [DAPT, N—[N-(3,5-difluorophenacetyl)-1-alanyl]-S-phenylglycine t-butyl ester]
- progenitor cell proliferation ([1]; FIG. 2D): small increase
- colony formation frequency ([1]; plated CD45 negative, non-parenchymal cells, without DAPT approximately 1 colony per 100,000): approximately 1 colony per 10,000 cells plated
- enhancement of colony formation ([1]; primary cultures treated with DAPT vs untreated, FIG. 2B): approximately ten-fold
- appearance of gamma-secretase cleaved (active) form of Notch2 (ICD) [2]: absent
